The values below come from patent publication US5824698A, “Antibacterial dibenzimidazole derivatives” (priority 1994, dated 1998).

Common to all, as to test: Antibacterial activity in vitro (MIC, standard agar method)
What all share (type): cell-based

The test system of one assay is E. coli DC2. As to conditions: Escherichia coli; E. coli DC2; DST agar, 35° C., 20 hours; read-out: Minimum inhibitory concentration (MIC). How it is done: (§1) The minimum inhibitory concentration (MIC) of the substances investigated against gram-positive and gram-negative strains was determined using standard agar methods. The compounds were dissolved in a small amount of dimethyl sulphoxide, diluted with water and incorporated into liquified DST agar at 50° C. The thus-produced agar plates were used immediately thereafter in the test. The test concentrations lay between 128 and 0.06 μg/ml. The bacterial inoculation solutions were prepared from pre-cultures grown overnight, diluted and applied to the agar surface using an inoculation device (Denley A400). The plates were incubated at 35° C. for 20 hours. The MIC was determined as the lowest concentration of substance which prevented a visible growth. A scarcely visible turbidity and the growth of less than 5 colonies were ignored. The determinations of the antibacterial activities (Tab. 1) were carried out not only for the free bases, but also for the hydrochloride salt of each compound. The same values were obtained within experimental error.

The subject of a further assay is Staph. aureus 25923. Particulars: Staphylococcus aureus, DST agar, 35° C., 20 hours, read-out: Minimum inhibitory concentration (MIC). How it is done: as §1
For another assay, the system named is E. cloacae P 99. As to conditions: Enterobacter cloacae, P99, 20 h, read-out: Minimum inhibitory concentration (MIC). On the procedure: as §1
The next assay concerns E. coli 1346. Particulars: Escherichia coli, DST agar, 35° C., 20 hours, read-out: Minimum inhibitory concentration (MIC). How it is done: as §1
A further assay concerns E. coli B. As to conditions: Escherichia coli, DST agar, 35° C., 20 hours, read-out: Minimum inhibitory concentration (MIC). How it is done: as §1
Another assay deals with P. aeruginosa 799/61. As to conditions: Pseudomonas aeruginosa, 799/61, 20 h, read-out: Minimum inhibitory concentration (MIC). On the procedure: as §1
The next assay relates to E. coli 25922. Particulars: read-out: Minimum inhibitory concentration (MIC). On the procedure:
as §1

Assay [1] deals with E. coli K12 KEA-12 (GyrA). As to conditions: Escherichia coli, 20 h, read-out: Minimum inhibitory concentration (MIC). How it is done:
as §1

In a further assay the test system is E. coli AS-19. Particulars: Escherichia coli, AS19, DST agar, 35° C., 20 hours, read-out: Minimum inhibitory concentration (MIC). On the procedure:
as §1

Another assay deals with E. faecalis 6. Particulars: read-out: Minimum inhibitory concentration (MIC). How it is done: as §1
The subject of another assay is Staph. aureus 887. As to conditions: Staphylococcus aureus, DST agar, 35° C., 20 hours, read-out: Minimum inhibitory concentration (MIC). On the procedure:
as §1

The subject of another assay is E. coli 1527 E. Particulars: Escherichia coli, read-out: Minimum inhibitory concentration (MIC). On the procedure: as §1
A further assay concerns S. marcescens. Particulars: Serratia marcescens, 20 h, read-out: Minimum inhibitory concentration (MIC). How it is done: as §1
A further assay concerns P. aeroginosa BA. As to conditions: DST agar, 35° C., 20 hours, read-out: Minimum inhibitory concentration (MIC). How it is done: as §1
The next assay concerns K. oxytoca 1082E. As to conditions: Klebsiella oxytoca, DST agar, 35° C., 20 hours, read-out: Minimum inhibitory concentration (MIC). How it is done:
as §1

The test system of another assay is E. coli H560. As to conditions: Escherichia coli, H560, 20 h, read-out: Minimum inhibitory concentration (MIC). On the procedure: as §1
The subject of the next assay is Staph. haemolyticus 75. As to conditions: Staphylococcus haemolyticus, DST agar, 35° C., 20 hours, read-out: Minimum inhibitory concentration (MIC). How it is done:
as §1

Another assay relates to B. subtilis ATCC 585369. As to conditions: Bacillus subtilis, ATCC585369, DST agar, 35° C., 20 hours, read-out: Minimum inhibitory concentration (MIC). On the procedure:
as §1

The next assay concerns P. aeroguinosa 3351. As to conditions: read-out: Minimum inhibitory concentration (MIC). How it is done: as §1
[2] abbreviates: Enterococcus faecalis, E. faecalis 6, DST agar, 35° C., 20 hours.
[3] abbreviates: Escherichia coli, E. coli 25922, DST agar, 35° C., 20 hours.

Values after ≈ are worked out from the molar mass of the structure shown. Like-named read-outs stand apart in the source and are kept apart here.

For `COc1cc(-c2nc3ccc(-c4ccc5nc(-c6ccc(O)c(OC)c6)[nH]c5c4)cc3[nH]2)ccc1O` [Example 3, 4-[2'-(4-Hydroxy-3-methoxy-phenyl)-6,6'-dibenzimidazol-2-yl]-2-methoxy-phenyl], the MIC is 8 µg/mL (≈ 16.7 µM) in the assay with E. coli DC2; 4 µg/mL (≈ 8.36 µM) in the assay with Staph. aureus 25923; greater than 128 µg/mL with E. cloacae P 99; 64 µg/mL (≈ 134 µM) in the assay with E. coli 1346; 16 µg/mL (≈ 33.4 µM) with E. coli B; greater than 128 µg/mL in the assay on P. aeruginosa 799/61. Also, the MIC with E. coli 25922 (Escherichia coli, 25922, 20 h) is greater than 128 µg/mL; in assay [1], greater than 128 µg/mL; in the assay with E. coli AS-19 it was greater than 128 µg/mL; in the assay on E. faecalis 6 (setting [2]), 4 µg/mL (≈ 8.36 µM); in the assay on Staph. aureus 887 it was 8 µg/mL (≈ 16.7 µM); in the assay with E. coli 1527 E (1527E, 20 h), greater than 128 µg/mL. Besides, the MIC is greater than 128 µg/mL in the assay on S. marcescens; greater than 128 µg/mL in the assay on P. aeroginosa BA; greater than 128 µg/mL in the assay on K. oxytoca 1082E; greater than 128 µg/mL in the assay on E. coli H560; 4 µg/mL (≈ 8.36 µM) with Staph. haemolyticus 75; 32 µg/mL (≈ 66.9 µM) in the assay on B. subtilis ATCC 585369. For the same compound, in the assay with P. aeroguinosa 3351 (20 h), the MIC was greater than 128 µg/mL.

As to `Nc1ccc(-c2nc3ccc(-c4ccc5nc(-c6ccc(N)cc6)[nH]c5c4)cc3[nH]2)cc1` [Example 7, 4-[2'-(4-Amino-phenyl)-6,6'-dibenzimidazol-2-yl]-phenylamine], the MIC is no more than 0.12 µg/mL in the assay with E. coli DC2; 1 µg/mL (≈ 2.4 µM) in the assay with Staph. aureus 25923; greater than 128 µg/mL in the assay on E. cloacae P 99; no more than 0.12 µg/mL with E. coli 1346; 0.25 µg/mL (≈ 0.6 µM) with E. coli B; greater than 128 µg/mL in the assay on P. aeruginosa 799/61. The MIC in the assay with E. coli 25922 (setting [3]) was greater than 128 µg/mL; in assay [1], greater than 128 µg/mL; with E. coli AS-19, 4 µg/mL (≈ 9.6 µM); in the assay on E. faecalis 6 (setting [2]) it was no more than 0.12 µg/mL; in the assay on Staph. aureus 887, 2 µg/mL (≈ 4.8 µM); in the assay with E. coli 1527 E (1527E, 20 h), greater than 128 µg/mL. In addition, the MIC is greater than 128 µg/mL in the assay on S. marcescens; greater than 128 µg/mL with P. aeroginosa BA; greater than 128 µg/mL in the assay with K. oxytoca 1082E; greater than 128 µg/mL in the assay on E. coli H560; greater than 0.12 µg/mL with Staph. haemolyticus 75; 2 µg/mL (≈ 4.8 µM) in the assay with B. subtilis ATCC 585369. Moreover, the MIC in the assay with P. aeroguinosa 3351 (20 h) is greater than 128 µg/mL.

On to `COc1ccc(-c2nc3ccc(-c4ccc5nc(-c6ccc(OC)cc6)[nH]c5c4)cc3[nH]2)cc1` [Example 8, 2,2'-Bis-(4-methoxy-phenyl)-6,6'-dibenzimidazole], for which the MIC in the assay with E. coli DC2 is 64 µg/mL (≈ 143 µM); in the assay with Staph. aureus 25923, 1 µg/mL (≈ 2.24 µM); in the assay on E. cloacae P 99 it was greater than 128 µg/mL; in the assay on E. coli 1346 it was 8 µg/mL (≈ 17.9 µM); in the assay with E. coli B, 8 µg/mL (≈ 17.9 µM); in the assay on P. aeruginosa 799/61, greater than 128 µg/mL. Moreover, the MIC was greater than 128 µg/mL in the assay on E. coli 25922 (Escherichia coli, 25922, 20 h); greater than 128 µg/mL in [1]; 32 µg/mL (≈ 71.7 µM) in the assay with E. coli AS-19; greater than 128 µg/mL in the assay with E. faecalis 6 (Enterococcus faecalis, 6, 20 h); 0.5 µg/mL (≈ 1.12 µM) in the assay with Staph. aureus 887; greater than 12 µg/mL in the assay with E. coli 1527 E (E. coli 1527 E, DST agar, 35° C., 20 hours). The MIC in the assay with S. marcescens is greater than 128 µg/mL; in the assay on P. aeroginosa BA it was greater than 128 µg/mL; with K. oxytoca 1082E, greater than 128 µg/mL; in the assay with E. coli H560, greater than 128 µg/mL; in the assay with Staph. haemolyticus 75, no more than 0.25 µg/mL; in the assay with B. subtilis ATCC 585369, 0.5 µg/mL (≈ 1.12 µM). Besides, in the assay with P. aeroguinosa 3351 (20 h), the MIC was greater than 128 µg/mL.

Turning to `c1coc(-c2nc3ccc(-c4ccc5nc(-c6ccco6)[nH]c5c4)cc3[nH]2)c1` [Example 10, 2,2'-Difuran-2-yl-6,6'-dibenzimidazole], the MIC is 1 µg/mL (≈ 2.73 µM) with E. coli DC2; 4 µg/mL (≈ 10.9 µM) with Staph. aureus 25923; greater than 128 µg/mL in the assay with E. cloacae P 99; 8 µg/mL (≈ 21.8 µM) with E. coli 1346; greater than 128 µg/mL with P. aeruginosa 799/61; greater than 128 µg/mL with E. coli 25922 (setting [3]). Besides, the MIC in assay [1] is greater than 128 µg/mL; in the assay with E. coli AS-19 it was 0.5 µg/mL (≈ 1.36 µM); in the assay on E. faecalis 6 (Enterococcus faecalis, 6, 20 h), greater than 128 µg/mL; in the assay with Staph. aureus 887 it was 2 µg/mL (≈ 5.46 µM); with E. coli 1527 E (1527E, 20 h) it was greater than 128 µg/mL; with S. marcescens it was greater than 128 µg/mL. The MIC with P. aeroginosa BA is greater than 128 µg/mL; with K. oxytoca 1082E, greater than 128 µg/mL; with E. coli H560 it was greater than 128 µg/mL; in the assay on Staph. haemolyticus 75 it was 0.25 µg/mL (≈ 0.682 µM); in the assay with P. aeroguinosa 3351 (P. aeroguinosa 3351, DST agar, 35° C., 20 hours) it was greater than 129 µg/mL.
